Data as given in PubChem BioAssay AID1963850 (Molecular Pharmacology Branch, DTP, NCI, 2024).

Tested on: 192522-019-R-J2-PDC complex tumor spheroid viability
Assay: Anticancer human tumor 192522-019-R-J2-PDC patient-derived colon adenocarcinoma cell line growth inhibition [POLQ]
Details: for IC50: curve of first compound; for viability, T/C: stronger effect = lower value
Outline: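 PDC + HUVEC + MSC complex spheroids; POLQ inhibitors ± partner drugs; top conc. at/near clinical Cmax, else 10 microM (SN-38 1 microM), half-log dilutions; 37 degrees C, 5% CO2.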

[1] = second compound 0.0316 µM, first compound 0.0316 µM
[2] = second compound 0.0316 µM, first compound 0.1 µM
[3] = second compound 0.0316 µM, first compound 0.316 µM
[4] = second compound 0.0316 µM, first compound 1 µM
[5] = second compound 0.0316 µM, first compound 3.16 µM
[6] = second compound 0.0316 µM, first compound 10 µM
[7] = second compound 0.1 µM, first compound 0.0316 µM
[8] = second compound 0.1 µM, first compound 0.1 µM
[9] = second compound 0.1 µM, first compound 0.316 µM
[10] = second compound 0.1 µM, first compound 1 µM
[11] = second compound 0.1 µM, first compound 3.16 µM
[12] = second compound 0.1 µM, first compound 10 µM
[13] = second compound 0.316 µM, first compound 0.0316 µM
[14] = second compound 0.316 µM, first compound 0.1 µM
[15] = second compound 0.316 µM, first compound 0.316 µM
[16] = second compound 0.316 µM, first compound 1 µM
[17] = second compound 0.316 µM, first compound 3.16 µM
[18] = second compound 0.316 µM, first compound 10 µM
[19] = second compound 1 µM, first compound 0.0316 µM
[20] = second compound 1 µM, first compound 0.1 µM
[21] = second compound 1 µM, first compound 0.316 µM
[22] = second compound 1 µM, first compound 1 µM
[23] = second compound 1 µM, first compound 3.16 µM
[24] = second compound 1 µM, first compound 10 µM
[25] = second compound 3.16 µM, first compound 0.0316 µM
[26] = second compound 3.16 µM, first compound 0.1 µM
[27] = second compound 3.16 µM, first compound 0.316 µM
[28] = second compound 3.16 µM, first compound 1 µM
[29] = second compound 3.16 µM, first compound 3.16 µM
[30] = second compound 3.16 µM, first compound 10 µM
[31] = second compound 10 µM, first compound 0.0316 µM
[32] = second compound 10 µM, first compound 0.1 µM
[33] = second compound 10 µM, first compound 0.316 µM
[34] = second compound 10 µM, first compound 1 µM
[35] = second compound 10 µM, first compound 3.16 µM
[36] = second compound 10 µM, first compound 10 µM
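Further: spheroids exposed to drugs for seven days before reading.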
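Wherever viability, T/C is given: 100% = DMSO vehicle control viability in luminescence.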

Work on `CC1COCCN1c1cc(-c2ccnn2C)c2ccnc(-c3ccn[nH]3)c2n1` (centres undefined) + COC1C(OC(N)=O)C(O)C(Oc2ccc3c(O)c(NC(=O)c4ccc(O)c(CC=C(C)C)c4)c(=O)oc3c2C)OC1(C)C yielded an IC50 (second compound 0.0316 µM) of 248 nM, an IC50 (second compound 0.1 µM) of 304 nM and an IC50 (second compound 0.316 µM) of 385 nM. It also gave an IC50 (second compound 1 µM) of 304 nM, an IC50 (second compound 3.16 µM) of 304 nM and an IC50 (second compound 10 µM) of 294 nM. For the same molecule, the viability, T/C [1] was 92.7%, the viability, T/C [2] was 70.6% and the viability, T/C [3] was 45.5%. It also gave a viability, T/C [4] of 34.8%, a viability, T/C [5] of 38.4% and a viability, T/C [6] of 45%. It also gave a viability, T/C [7] of 103%, a viability, T/C [8] of 80.9% and a viability, T/C [9] of 50.3%. The viability, T/C [10] was 35.9%, the viability, T/C [11] was 36.9% and the viability, T/C [12] was 45.9%. It also gave a viability, T/C [13] of 93.4%, a viability, T/C [14] of 84.1% and a viability, T/C [15] of 52.8%. The viability, T/C [16] was 35.4%, the viability, T/C [17] was 39.1% and the viability, T/C [18] was 47.6%. The viability, T/C [19] was 101%, the viability, T/C [20] was 87.6% and the viability, T/C [21] was 49.5%. The viability, T/C [22] was 33.8%, the viability, T/C [23] was 33.6% and the viability, T/C [24] was 47.2%. It also gave a viability, T/C [25] of 98.6%, a viability, T/C [26] of 86.1% and a viability, T/C [27] of 49.5%. It also gave a viability, T/C [28] of 34.6%, a viability, T/C [29] of 43.1% and a viability, T/C [30] of 48.3%. The viability, T/C [31] was 103%, the viability, T/C [32] was 77.6% and the viability, T/C [33] was 50.2%. For the same molecule, the viability, T/C [34] was 32.3%, the viability, T/C [35] was 44.9% and the viability, T/C [36] was 46.8%.
For `COc1ccc([C@@H](O)c2cc(-c3ncnc4cc(N5CCOCC5)ccc34)c(F)cc2Cl)nn1` + COC1C(OC(N)=O)C(O)C(Oc2ccc3c(O)c(NC(=O)c4ccc(O)c(CC=C(C)C)c4)c(=O)oc3c2C)OC1(C)C, the IC50 (second compound 0.0316 µM) was > 10000 nM, the IC50 (second compound 0.1 µM) was > 10000 nM and the IC50 (second compound 0.316 µM) was > 10000 nM. For the same molecule, the IC50 (second compound 1 µM) was > 10000 nM, the IC50 (second compound 3.16 µM) was > 10000 nM and the IC50 (second compound 10 µM) was > 10000 nM. For the same molecule, the viability, T/C [1] was 105%, the viability, T/C [2] was 87.2% and the viability, T/C [3] was 120%. It also gave a viability, T/C [4] of 97.7%, a viability, T/C [5] of 99.8% and a viability, T/C [6] of 63.1%. The viability, T/C [7] was 109%, the viability, T/C [8] was 97.6% and the viability, T/C [9] was 106%. For the same molecule, the viability, T/C [10] was 95.5%, the viability, T/C [11] was 88.1% and the viability, T/C [12] was 62.4%. It also gave a viability, T/C [13] of 117%, a viability, T/C [14] of 93.2% and a viability, T/C [15] of 103%. For the same molecule, the viability, T/C [16] was 107%, the viability, T/C [17] was 97.8% and the viability, T/C [18] was 68.5%. For the same molecule, the viability, T/C [19] was 109%, the viability, T/C [20] was 106% and the viability, T/C [21] was 104%. For the same molecule, the viability, T/C [22] was 92.9%, the viability, T/C [23] was 86.8% and the viability, T/C [24] was 63.1%. The viability, T/C [25] was 96%, the viability, T/C [26] was 99.2% and the viability, T/C [27] was 117%. It also gave a viability, T/C [28] of 84.9%, a viability, T/C [29] of 98.1% and a viability, T/C [30] of 72.9%. The viability, T/C [31] was 103%, the viability, T/C [32] was 104% and the viability, T/C [33] was 114%. For the same molecule, the viability, T/C [34] was 108%, the viability, T/C [35] was 99.2% and the viability, T/C [36] was 66.9%.
